Data taken from patent publication US8673908B2, “Kynurenine production inhibitor” (Kyowa Hakko Kirin Co., Ltd., priority 2008, dated 2014).

test system: kynurenine production in IFN-γ-treated KATO-III cells; test: Inhibitory activity on kynurenine production (Test Example 1); type: cell-based; details: Homo sapiens, IFN-γ treatment, culture for 96 hours, read-out: IC50 value, inhibition of kynurenine production
Procedure: This assay was performed according to a method modified from the method described in the Journal of Biological Chemistry (J. Biol. Chem.), vol. 263, pp. 2041-2048 (1988). Culture of KATO-III derived from human gastric cancer cells was performed by use of RPMI 1640 (GIBCO, 11875) supplemented with 10 vol % FBS (GIBCO, 10091-148, lot. 665285). 1 μL of a DMSO solution of the test substance was diluted with 199 μL of the culture medium, and the diluted solution was added to wells of a 384 well plate (10 μL/well). Then, IFN-γ (Sigma, 1-3265) was added to the culture medium so that the concentration of IFN-γ was 31.25 ng/mL, and the KATO-III cells were suspended at 50,000 cells/ml, in the culture medium. 40 μL of the suspension was added to each well (2,000 cells/well), and culture of the KATO-III cells was performed at 37° C. under a 5% CO2 atmosphere for 96 hours. The final concentration of DMSO was limited to 0.1 vol % or less so that DMSO itself might not affect the kynurenine concentration measured by this assay. After the culture, 10 μL of a 30 w/v % aqueous trichloroacetic acid solution was added to each well, and incubation was performed at 65° C. for 30 minutes. The plate was centrifuged at 2,500×g for 5 minutes, and then 15 μL of the supernatant in each well was transferred into another 384 well plate. To each of the transferred supernatants, 15 μL of a 2 w/v % solution of p-dimethylaminobenzaldehyde in acetic acid was added, incubation was performed at 65° C. for 20 minutes, and then the absorbance at 480 nm was measured.
[formula] Sample: the absorbance value of the well to which a DMSO solution containing the test substance was added and in which cells were treated with IFN-γ. Blank: the absorbance value of the well to which only DMSO, not the test substance was added and in which cells were treated with IFN-γ. Control: the absorbance value of the well to which only DMSO, not the test substance was added and in which cells were not treated with IFN-γ.
In this assay, expression of IDO in KATO-III cells is induced by IFN-γ treatment and then kynurenine in the culture medium is quantified. It is known that the kynurenine concentration in a culture medium increases in proportion to the enzymatic activity of intracellular IDO (for example, the Journal of Biological Chemistry (J. Biol. Chem.), vol. 263, pp. 2041-2048 (1988)). […] It is known that kynurenine production is inhibited by IDO inhibitors (for example, the Journal of Clinical Investigation (J. Clin. Invest.), vol. 117, No. 5, pp. 1147-1154 […]), and thus it is expected that Compound (I) also has an inhibitory effect on IDO.

`O=S(=O)(Nc1nc2ccccc2nc1OC(c1cccnc1)C(F)(F)C(F)(F)F)c1cccc(Cl)c1Cl` (centres unmarked) [Compound 46, 2,3-dichloro-N-{3-[3,3,3,2,2-pentafluoro-1-(pyridin-3-yl)-propoxy]quinoxalin-2-yl}benzenesulfonamide] and `O=S(=O)(Nc1nc2ccccc2nc1OC(c1ccc(Cl)nc1)C(F)(F)F)c1ccccc1Cl` (centres unmarked) [Compound 85, 2-chloro-N-{3-[2,2,2-trifluoro-1-(6-chloropyridin-3-yl)-ethoxy]quinoxalin-2-yl}benzenesulfonamide] cannot be ordered by IC50: less than 1000 nM for the first, less than 1000 nM for the second.

`O=S(=O)(Nc1nc2ccccc2nc1OC(c1ccccn1)C(F)(F)F)c1ccccc1Cl` (centres unmarked) [Compound 48, 2-chloro-N-{3-[2,2,2-trifluoro-1-(pyridin-2-yl)ethoxy]-quinoxalin-2-yl}benzenesulfonamide] and `O=S(=O)(Nc1nc2ccccc2nc1OC(c1ccncc1)C(F)(F)F)c1ccccc1Cl` (centres unmarked) [Compound 49, 2-chloro-N-{3-[2,2,2-trifluoro-1-(pyridin-4-yl)ethoxy]quinoxalin-2-yl}benzenesulfonamide] cannot be ordered by IC50: less than 1000 nM for the first, less than 1000 nM for the second.

`O=S(=O)(Nc1nc2ccccc2nc1OC(c1ccc(Cl)cc1)C(F)(F)F)c1ccccc1Cl` (centres unmarked) [Compound 53, 2-chloro-N-{3-[2,2,2-trifluoro-1-(4-chlorophenyl)ethoxy]-quinoxalin-2-yl}benzenesulfonamide] and `O=S(=O)(Nc1nc2ccccc2nc1OC(c1ccc(F)cc1)C(F)(F)F)c1ccccc1Cl` (centres unmarked) [Compound 59, 2-chloro-N-{3-[2,2,2-trifluoro-1-(4-fluorophenyl)ethoxy]-quinoxalin-2-yl}benzenesulfonamide] cannot be ordered by IC50: less than 1000 nM for the first, less than 1000 nM for the second.

`N#Cc1ccc(C(Oc2nc3ccccc3nc2NS(=O)(=O)c2ccccc2Cl)C(F)(F)F)cn1` (centres unmarked) [Compound 54, 2-chloro-N-{3-[2,2,2-trifluoro-1-(6-cyanopyridin-3-yl)-ethoxy]quinoxalin-2-yl}benzenesulfonamide] and `O=S(=O)(Nc1nc2ccccc2nc1OC(c1ccc(Br)nc1)C(F)(F)F)c1ccccc1Cl` (centres unmarked) [Compound 86, 2-chloro-N-{3-[2,2,2-trifluoro-1-(6-bromopyridin-3-yl)-ethoxy]quinoxalin-2-yl}benzenesulfonamide] cannot be ordered by IC50: less than 1000 nM for the first, less than 1000 nM for the second.

`COCOc1ccc(C(Oc2nc3ccccc3nc2NS(=O)(=O)c2ccccc2Cl)C(F)(F)F)cc1` (centres unmarked) [Compound 56, 2-chloro-N-{3-[2,2,2-trifluoro-1-(4-methoxymethoxyphenyl)-ethoxy]quinoxalin-2-yl}benzenesulfonamide] and `O=Cc1ccc(C(Oc2nc3ccccc3nc2NS(=O)(=O)c2ccccc2Cl)C(F)(F)F)cc1` (centres unmarked) [Compound 58, 2-chloro-N-{3-[2,2,2-trifluoro-1-(4-formylphenyl)ethoxy]-quinoxalin-2-yl}benzenesulfonamide] cannot be ordered by IC50: less than 1000 nM for the first, less than 1000 nM for the second.

`O=S(=O)(Nc1nc2ccccc2nc1OC(c1ccc(CO)cc1)C(F)(F)F)c1ccccc1Cl` (centres unmarked) [Compound 60, 2-chloro-N-{3-[2,2,2-trifluoro-1-(4-hydroxymethylphenyl)-ethoxy]quinoxalin-2-yl}benzenesulfonamide] and `CN(C)Cc1ccc(C(Oc2nc3ccccc3nc2NS(=O)(=O)c2ccccc2Cl)C(F)(F)F)cc1` (centres unmarked) [Compound 62, 2-chloro-N-{3-[2,2,2-trifluoro-1-(4-dimethylaminomethyl-phenyl)ethoxy]quinoxalin-2-yl}benzenesulfonamide] cannot be ordered by IC50: less than 1000 nM for the first, less than 1000 nM for the second.

`CN(C)C(=O)c1ccc(C(Oc2nc3ccccc3nc2NS(=O)(=O)c2ccccc2Cl)C(F)(F)F)cc1` (centres unmarked) [Compound 63, 2-chloro-N-{3-[2,2,2-trifluoro-1-(4-dimethylcarbamoyl-phenyl)ethoxy]quinoxalin-2-yl}benzenesulfonamide] and `O=S(=O)(Nc1nc2ccccc2nc1OC(c1cccc(F)c1)C(F)(F)F)c1ccccc1Cl` (centres unmarked) [Compound 83, 2-chloro-N-{3-[2,2,2-trifluoro-1-(3-fluorophenyl)ethoxy]-quinoxalin-2-yl}benzenesulfonamide] cannot be ordered by IC50: less than 1000 nM for the first, less than 1000 nM for the second.

`COc1ccc(C(Oc2nc3ccccc3nc2NS(=O)(=O)c2ccccc2Cl)C(F)(F)F)cn1` (centres unmarked) [Compound 64, 2-chloro-N-{3-[2,2,2-trifluoro-1-(6-methoxypyridin-3-yl)-ethoxy]quinoxalin-2-yl}benzenesulfonamide] and `O=S(=O)(Nc1nc2ccccc2nc1OC(c1ccc(C2CC2)nc1)C(F)(F)F)c1ccccc1Cl` (centres unmarked) [Compound 89, 2-chloro-N-{3-[2,2,2-trifluoro-1-(6-cyclopropylpyridin-3-yl)ethoxy]quinoxalin-2-yl}benzenesulfonamide] cannot be ordered by IC50: less than 1000 nM for the first, less than 1000 nM for the second.

`CC(C)(C#N)C(Oc1nc2ccccc2nc1NS(=O)(=O)c1ccccc1Cl)c1cccnc1` (centres unmarked) [Compound 67, 2-chloro-N-{3-[2-cyano-2-methyl-1-(pyridin-3-yl)propoxy]-quinoxalin-2-yl}benzenesulfonamide] and `CC(C)(C(Oc1nc2ccccc2nc1NS(=O)(=O)c1ccccc1Cl)c1cccnc1)S(C)(=O)=O` (centres unmarked) [Compound 80, 2-chloro-N-{3-[2-methanesulfonyl-2-methyl-1-(pyridin-3-yl)-propoxy]quinoxalin-2-yl}benzenesulfonamide] cannot be ordered by IC50: less than 1000 nM for the first, less than 1000 nM for the second.

`Cc1ccc(C(Oc2nc3ccccc3nc2NS(=O)(=O)c2c(C)nn(C)c2Cl)C(F)(F)F)cn1` (centres unmarked) [Compound 69, 5-chloro-1,3-dimethyl-N-{3-[2,2,2-trifluoro-1-(6-methylpyridin-3-yl)ethoxy]quinoxalin-2-yl}-1H-pyrazole-4-sulfonamide] and `Cc1ccc(C(Oc2nc3ccccc3nc2NS(=O)(=O)c2c(C)noc2C)C(F)(F)F)cn1` (centres unmarked) [Compound 70, 3,5-dimethyl-N-{3-[2,2,2-trifluoro-1-(6-methylpyridin-3-yl)ethoxy]quinoxalin-2-yl}isoxazole-4-sulfonamide] cannot be ordered by IC50: less than 1000 nM for the first, less than 1000 nM for the second.

`COc1cncc(C(Oc2nc3ccccc3nc2NS(=O)(=O)c2ccccc2Cl)C(F)(F)F)c1` (centres unmarked) [Compound 71, 2-chloro-N-{3-[2,2,2-trifluoro-1-(5-methoxypyridin-3-yl)-ethoxy]quinoxalin-2-yl}benzenesulfonamide] and `O=S(=O)(Nc1nc2ccccc2nc1OC(c1cccc(Cl)c1)C(F)(F)F)c1ccccc1Cl` (centres unmarked) [Compound 84, 2-chloro-N-{3-[2,2,2-trifluoro-1-(3-chlorophenyl)ethoxy]-quinoxalin-2-yl}benzenesulfonamide] cannot be ordered by IC50: less than 1000 nM for the first, less than 1000 nM for the second.

`O=S(=O)(Nc1nc2ccccc2nc1OC(c1cccnc1)C1CCOCC1)c1ccccc1Cl` (centres unmarked) [Compound 73, 2-chloro-N-{3-[tetrahydropyran-4-yl(pyridin-3-yl)methoxy]-quinoxalin-2-yl}benzenesulfonamide] and `O=S(=O)(Nc1nc2ccccc2nc1OC(c1cccnc1)C1(F)CCOCC1)c1ccccc1Cl` (centres unmarked) [Compound 78, 2-chloro-N-{3-[4-fluorotetrahydropyran-4-yl(pyridin-3-yl)-methoxy]quinoxalin-2-yl}benzenesulfonamide] cannot be ordered by IC50: less than 1000 nM for the first, less than 1000 nM for the second.

Compared with `N#Cc1cccc(C(Oc2nc3ccccc3nc2NS(=O)(=O)c2ccccc2Cl)C(F)(F)F)c1` (centres unmarked) [Compound 82, 2-chloro-N-{3-[2,2,2-trifluoro-1-(3-cyanophenyl)ethoxy]-quinoxalin-2-yl}benzenesulfonamide], `CC(C)(Oc1nc2ccccc2nc1NS(=O)(=O)c1ccccc1Cl)c1cccnc1` [Compound 91, 2-chloro-N-{3-[1-methyl-1-(pyridin-3-yl)ethoxy]quinoxalin-2-yl}benzenesulfonamide] is higher in IC50: less than 1000 nM for the first, 1000 to 10000 nM for the second. The first is the more potent here.

`Cc1nn(C)c(Cl)c1S(=O)(=O)Nc1nc2ccccc2nc1OC(c1cccnc1)C1(F)CCOCC1` (centres unmarked) [Compound 87, 5-chloro-1,3-dimethyl-N-{3-[4-fluorotetrahydropyran-4-yl-(pyridin-3-yl)methoxy]quinoxalin-2-yl}-1H-pyrazole-4-sulfonamide] and `Cc1noc(C)c1S(=O)(=O)Nc1nc2ccccc2nc1OC(c1cccnc1)C1(F)CCOCC1` (centres unmarked) [Compound 88, 3,5-dimethyl-N-{3-[4-fluorotetrahydropyran-4-yl(pyridin-3-yl)methoxy]quinoxalin-2-yl}isoxazole-4-sulfonamide] cannot be ordered by IC50: less than 1000 nM for the first, less than 1000 nM for the second.

`O=S(=O)(Nc1nc2ccccc2nc1OC1(c2cccnc2)CCOCC1)c1ccccc1Cl` [Compound 90, 2-chloro-N-{3-{[4-(pyridin-3-yl)tetrahydropyran-4-yl]oxy}-quinoxalin-2-yl}benzenesulfonamide] showed an IC50 of less than 1000 nM.
